Laboratory results reported in US9839215B2, “Methods for increasing oil palm yield” (Valent BioSciences Corporation, priority 2015, dated 2017).

Experiments:
[1] = test system: oil palm; test: Field study of cumulative loose fruit (CLF) and cumulative loose mass (CLM) after one-time bunch-directed spray; format: in vivo, oil palm (Compact×Ghana plants); conditions: one spray 100 mL/bunch; for Cumulative Loose Mass / % Difference with UTC (Cumulative Loose Fruit) / % Difference with UTC (Cumulative Loose Mass): 14 days; for % Difference with UTC (Cumulative Loose Fruit) / % Difference with UTC (Cumulative Loose Mass): positive = reduction; for Cumulative Loose Fruit: counted for 14 days
Text: Plant Material: A field study was executed in a plantation in Costa Rica to compare the effects of one-time bunch-directed applications of: (1) water sprayed untreated control (UTC); (2) AVG-HCl at 500 ppm (59.5 g) active ingredient (a.i.); (3) AVG-HCl at 125 ppm (14.9 g) a.i.; (4) 200 ppm (0.2 g) a.i. of NAA; (5) AVG-HCl at 500 ppm (59.5 g) a.i. and 200 ppm (0.2 g) a.i. of NAA; and (6) AVG-HCl at 125 ppm (14.9 g) a.i. and 200 ppm (0.2 g) a.i. of NAA. In this study, AVG was provided in a formulation as AVG-HCl. NAA was provided as the sodium salt at concentrations of 20% and 3.5%. For each treatment, 24 palms per treatment were randomly selected covering about 15 hectares. The palms were Compact×Ghana plants and 2.5 to 3 years old. Treatment Application: A manual DEA-2000 sprayer was used to spray all treatments (100 mL/bunch) to bunches with 1 to 3 loose fruits. The time required to spray each bunch was about 11 to 20 seconds depending on the sprayer. Sprays were conducted only once per bunch. Twelve bunches were sprayed on Oct. 28, 2014 and the other 12 on Nov. 4, 2014. Cumulative loose fruit (CLF) and cumulative loose mass (CLM) counts were determined at daily basis with exception of Sundays for 14 days in order to objectively quantify fruit abscission. An electronic balance was used to weight out all fruit. All loose fruit on the bunch, branches and on the ground was counted and weighed.

[2] = test system: oil palms; test: Oil yield of oil palms after application before harvest of the fruit; format: in vivo, oil palm; conditions: applied before harvest of the fruit
[3] = test system: oil palm fruit; conditions: preharvest application to attached bunches of oil palm fruit; cited from earlier work

Q: For `NCCO/C=C/[C@H](N)C(=O)O` (stereo in doubt) [AVG, [S]-trans-2-amino-4-(2-aminoethoxy)-3-butenoic acid], which “Cumulative Loose Mass” value ([1]; AVG-HCl 125 ppm (14.9 g) a.i.) is on record?
A: The value was 2028 g.

Q: What about the “% Difference with UTC (Cumulative Loose Fruit)” value ([1]; AVG-HCl 125 ppm (14.9 g) a.i.) of the same molecule?
A: The value was 3.9%.

Q: What about the “% Difference with UTC (Cumulative Loose Mass)” value ([1]; AVG-HCl 125 ppm (14.9 g) a.i.) of the same molecule?
A: Its value is −5.4%.

Q: And the “Cumulative Loose Fruit” value ([1]; AVG-HCl 125 ppm (14.9 g) a.i.)?
A: Its value is 160.7.

Q: And the “Cumulative Loose Mass” value ([1]; AVG-HCl 500 ppm (59.5 g) a.i.)?
A: The value was 1154 g.

Q: What about the “% Difference with UTC (Cumulative Loose Fruit)” value ([1]; AVG-HCl 500 ppm (59.5 g) a.i.) of the same molecule?
A: Its value is 48.5%.

Q: And the “% Difference with UTC (Cumulative Loose Mass)” value ([1]; AVG-HCl 500 ppm (59.5 g) a.i.)?
A: The value was 40%.

Q: And the “Cumulative Loose Fruit” value ([1]; AVG-HCl 500 ppm (59.5 g) a.i.)?
A: The value was 86.1.

Q: Which results are given for `O=C(O)Cc1cccc2ccccc12` [NAA, 1-naphthaleneacetic acid]?
A: oil yield of oil palms [2]: increases the oil yield; Cumulative Loose Mass ([1]; NAA 200 ppm (0.2 g) a.i.): 1501 g; % Difference with UTC (Cumulative Loose Fruit) ([1]; NAA 200 ppm (0.2 g) a.i.): 31.3%; % Difference with UTC (Cumulative Loose Mass) ([1]; NAA 200 ppm (0.2 g) a.i.): 22%; Cumulative Loose Fruit ([1]; NAA 200 ppm (0.2 g) a.i.): 114.8

Q: Which “increase of oil content” value [3] does the source give for `O=P(O)(O)CCCl` [ethephon, 2-chloroethyl phosphonic acid] here?
A: The value was 7%.

Q: For `C=C1C[C@]23C[C@@]1(O)CC[C@H]2[C@@]12C=C[C@H](O)[C@@](C)(C(=O)O1)[C@H]2[C@@H]3C(=O)O` [gibberellic acid], which “oil yield of oil palms” value [2] is on record?
A: Its value is “inconsistent and unsatisfactory oil yields”.
